According to the NIST ThermoML archive (doi:10.1021/acs.jced.7b00946):

Assay: molar heat capacity at constant pressure
Conditions: Gas, Flow calorimetry

C=C(F)C(F)(F)F [2,3,3,3-tetrafluoro-1-propene]
Conditions	molar heat capacity at constant pressure [J/K/mol]
373.15 K, 3498 kPa	410.55
373.15 K, 4114 kPa	394.58
373.15 K, 4160 kPa	387.74
373.15 K, 4441 kPa	288.53
373.15 K, 4642 kPa	273.7
373.15 K, 4921 kPa	245.19
373.15 K, 5047 kPa	238.35
373.15 K, 5955 kPa	210.98
373.15 K, 6023 kPa	210.98
373.15 K, 8020 kPa	187.03
373.15 K, 8021 kPa	188.17
373.15 K, 8024 kPa	188.17
393.15 K, 4039 kPa	218.96
393.15 K, 4040 kPa	217.82
393.15 K, 4943 kPa	345.55
393.15 K, 4944 kPa	339.84
393.15 K, 5417 kPa	322.74
393.15 K, 5958 kPa	278.26
393.15 K, 6022 kPa	275.98
393.15 K, 7949 kPa	205.27
393.15 K, 8043 kPa	205.27
393.15 K, 10032 kPa	188.17
413.15 K, 4015 kPa	173.34
413.15 K, 4989 kPa	207.56
413.15 K, 5045 kPa	208.7
413.15 K, 6037 kPa	244.05
413.15 K, 6963 kPa	245.19
413.15 K, 6965 kPa	241.77
413.15 K, 8042 kPa	228.08
413.15 K, 8043 kPa	228.08
413.15 K, 10030 kPa	201.85
